Measured values reported in ChEMBL document CHEMBL2074265, “Isolation and characterization of Caco-2 subclones expressing high levels of multidrug resistance protein efflux transporter” (Pharm Res, 2003).

Target: ATP-dependent translocase ABCB1 (Homo sapiens, UniProt P08183)
Sequence (P08183 whole entry): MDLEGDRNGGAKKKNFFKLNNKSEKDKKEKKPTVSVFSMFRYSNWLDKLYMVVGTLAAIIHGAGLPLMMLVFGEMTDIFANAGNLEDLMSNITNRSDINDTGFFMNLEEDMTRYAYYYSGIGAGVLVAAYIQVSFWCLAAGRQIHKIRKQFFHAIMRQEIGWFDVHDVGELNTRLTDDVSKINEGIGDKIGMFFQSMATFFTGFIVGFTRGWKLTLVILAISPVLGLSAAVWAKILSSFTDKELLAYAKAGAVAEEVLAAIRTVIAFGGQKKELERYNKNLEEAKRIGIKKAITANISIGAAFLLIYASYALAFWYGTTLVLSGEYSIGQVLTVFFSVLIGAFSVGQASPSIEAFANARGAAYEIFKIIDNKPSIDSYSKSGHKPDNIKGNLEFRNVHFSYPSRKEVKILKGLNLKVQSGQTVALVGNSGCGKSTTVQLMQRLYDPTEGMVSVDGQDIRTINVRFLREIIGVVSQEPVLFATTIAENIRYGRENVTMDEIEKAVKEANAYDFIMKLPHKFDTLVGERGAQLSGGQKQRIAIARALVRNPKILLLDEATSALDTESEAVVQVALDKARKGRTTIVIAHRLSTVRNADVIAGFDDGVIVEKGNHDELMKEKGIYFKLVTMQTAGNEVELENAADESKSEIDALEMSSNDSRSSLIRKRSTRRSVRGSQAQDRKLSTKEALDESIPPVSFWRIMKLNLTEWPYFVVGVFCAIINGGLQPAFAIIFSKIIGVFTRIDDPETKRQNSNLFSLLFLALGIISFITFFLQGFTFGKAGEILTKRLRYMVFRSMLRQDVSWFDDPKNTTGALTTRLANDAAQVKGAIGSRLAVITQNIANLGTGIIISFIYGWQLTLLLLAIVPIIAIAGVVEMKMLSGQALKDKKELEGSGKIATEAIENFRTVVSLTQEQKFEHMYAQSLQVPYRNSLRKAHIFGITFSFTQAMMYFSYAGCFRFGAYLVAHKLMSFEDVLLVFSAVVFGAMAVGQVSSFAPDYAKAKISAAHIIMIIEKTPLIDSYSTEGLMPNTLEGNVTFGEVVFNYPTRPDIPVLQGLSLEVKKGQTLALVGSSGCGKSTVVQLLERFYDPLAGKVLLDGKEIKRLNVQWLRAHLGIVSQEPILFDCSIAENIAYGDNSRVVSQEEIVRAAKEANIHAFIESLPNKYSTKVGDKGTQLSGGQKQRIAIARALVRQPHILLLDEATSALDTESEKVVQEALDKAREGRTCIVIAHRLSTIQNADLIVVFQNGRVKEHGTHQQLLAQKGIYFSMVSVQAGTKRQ
Description: TP_TRANSPORTER: transepithelial transport of digoxin (basal to apical) in Caco-2 cells

For COC(=O)[C@H]1[C@H]2C[C@@H]3c4[nH]c5cc(OC)ccc5c4CCN3C[C@H]2C[C@@H](OC(=O)c2cc(OC)c(OC)c(OC)c2)[C@@H]1OC [RESERPINE], the Ki was 2310 nM.
